What was measured:
Assay type in all cases: in vivo, pig
claudin5 = assay: Claudin5 protein expression in BVECs of cerebral cortex (IHC, MATLAB), DMHC pigs; settings: Darapladib 10 mg/kg/d orally, 24 weeks
Description: Briefly, after induction of diabetes by a single injection of Streptozotocin, animals were fed a high cholesterol diet. After a month of DMHC induction and acclimation, animals were randomly segregated to untreated DMHC and Darapladib-treated DMHC groups. Darapladib-treated pigs received 10 mg/kg/d of Darapladib orally. Three of the pigs were spared from DMHC induction and served as age-matched, non-DMHC normal controls. Twenty four weeks after acclimation, animals were euthanized and their brains and eyes were immediately removed. Brains were divided anteroposteriorly into anterior, middle and posterior regions. For each of these brain regions, 2-3 tissue blocks were generated for routine tissue fixation (10% formalin) or freezing and histological processing. The anterior cortical region comprised of anterior 2⁄3 of frontal lobe and anterior 1⁄3 of temporal lobe. The middle cortical region contained mid 1⁄3 of temporal lobe and anterior 1⁄2 of the parietal lobe. The posterior cortex included the posterior 1⁄2 of the parietal lobe, posterior 1⁄3 of the temporal lobe and the occipital lobe. Eyes were dissected longitudinally to sever the retina at the optic nerve. The sections were fixed in 10% formalin and embedded as flattened disc in paraffin. The tissue samples were processed using routine histology techniques. Standard Hematoxylin & Eosin (H&E) staining (FIG. 1) was carried out in retinal sections. Localization of claudin5, occludin and IgG in the cerebral cortex and retina was carried out using immunohistochemistry (IHC) as described previously. Briefly, tissue sections were deparaffinized in xylene and rehydrated in decreasing concentrations of ethanol. The antigenicity of these tissues was enhanced by microwaving in citrate buffer. Sections were treated with 3% H2O2 for 10 minutes to quench endogenous peroxidase activity. Tissues were subsequently treated with their appropriate blocking serum for 30 minutes at room temperature and then probed with anti-claudin5 (Invitrogen, Cat #35-2500, dilution 1:150) or anti-occludin (Invitrogen, Cat #71-1500, dilution 1:800) antibodies for 1 hour at room temperature. Extravasated IgG was detected using biotinylated anti-swine IgG antibody (Vector laboratories, Inc., Catalogue # BA-9020; dilution 1:100). The use of occludin antibody required pre-treatment with a protease (Sigma, Catalogue P-5147; 1.5 mg/ml) for 10 minutes at 37° C. At the end of primary antibody step, all tissue sections were thoroughly rinsed in PBS and then probed with biotin-labeled secondary antibodies [anti-mouse IgG (Vector laboratories, Catalogue # PK-6102; Dilution 1:100) for claudin5 and anti-rabbit IgG (Vector laboratories, Inc., Catalogue # PK-6101; Dilution 1:100) for occludin] for 30 minutes at room temperature. Sections were then rinsed in PBS, treated with avidin-peroxidase complex (Vectastain ABC Elite kit, Vector Laboratories, Inc., Catalogue PK-6100), washed with PBS and visualized with 3-3-diaminobenzidine-4-HCL (DAB)/H2O2 (Imm-PACT-DAB) (Dako, Code K3468). […] Slides were examined and photographed with a Nikon FXA microscope, and digital images were recorded using a Nikon DXM1200F digital camera and analyzed using MATLAB (MathWorks, Mass., USA) and NIS-elements software (Nikon, Melville, N.Y.). […] Claudin5 and occludin protein expression in pig cerebral cortex was evaluated semi-quantitatively using IHC by taking images at five random locations as described previously. Images were analyzed using MATLAB (MathWorks, Mass., USA). […]

occludin = assay: Occludin protein expression in BVECs of cerebral cortex (IHC, MATLAB), DMHC pigs; settings: Darapladib 10 mg/kg/d orally, 24 weeks
Description: Briefly, after induction of diabetes by a single injection of Streptozotocin, animals were fed a high cholesterol diet. After a month of DMHC induction and acclimation, animals were randomly segregated to untreated DMHC and Darapladib-treated DMHC groups. Darapladib-treated pigs received 10 mg/kg/d of Darapladib orally. Three of the pigs were spared from DMHC induction and served as age-matched, non-DMHC normal controls. Twenty four weeks after acclimation, animals were euthanized and their brains and eyes were immediately removed. Brains were divided anteroposteriorly into anterior, middle and posterior regions. For each of these brain regions, 2-3 tissue blocks were generated for routine tissue fixation (10% formalin) or freezing and histological processing. The anterior cortical region comprised of anterior 2⁄3 of frontal lobe and anterior 1⁄3 of temporal lobe. The middle cortical region contained mid 1⁄3 of temporal lobe and anterior 1⁄2 of the parietal lobe. The posterior cortex included the posterior 1⁄2 of the parietal lobe, posterior 1⁄3 of the temporal lobe and the occipital lobe. Eyes were dissected longitudinally to sever the retina at the optic nerve. The sections were fixed in 10% formalin and embedded as flattened disc in paraffin. The tissue samples were processed using routine histology techniques. Standard Hematoxylin & Eosin (H&E) staining (FIG. 1) was carried out in retinal sections. […] Extravasated IgG was detected using biotinylated anti-swine IgG antibody (Vector laboratories, Inc., Catalogue # BA-9020; dilution 1:100). […] Slides were examined and photographed with a Nikon FXA microscope, and digital images were recorded using a Nikon DXM1200F digital camera and analyzed using MATLAB (MathWorks, Mass., USA) and NIS-elements software (Nikon, Melville, N.Y.). […] Claudin5 and occludin protein expression in pig cerebral cortex was evaluated semi-quantitatively using IHC by taking images at five random locations as described previously. Images were analyzed using MATLAB (MathWorks, Mass., USA). […]

porcine retina = assay: Determination of retinal layer thickness (H&E, ImagePro) in DMHC porcine model; settings: DMHC pigs, Darapladib 10 mg/kg/d orally, 24 weeks
Description: Briefly, after induction of diabetes by a single injection of Streptozotocin, animals were fed a high cholesterol diet. After a month of DMHC induction and acclimation, animals were randomly segregated to untreated DMHC and Darapladib-treated DMHC groups. Darapladib-treated pigs received 10 mg/kg/d of Darapladib orally. Three of the pigs were spared from DMHC induction and served as age-matched, non-DMHC normal controls. Twenty four weeks after acclimation, animals were euthanized and their brains and eyes were immediately removed. Brains were divided anteroposteriorly into anterior, middle and posterior regions. For each of these brain regions, 2-3 tissue blocks were generated for routine tissue fixation (10% formalin) or freezing and histological processing. The anterior cortical region comprised of anterior ⅔ of frontal lobe and anterior ⅓ of temporal lobe. The middle cortical region contained mid ⅓ of temporal lobe and anterior ½ of the parietal lobe. The posterior cortex included the posterior ½ of the parietal lobe, posterior ⅓ of the temporal lobe and the occipital lobe. Eyes were dissected longitudinally to sever the retina at the optic nerve. The sections were fixed in 10% formalin and embedded as flattened disc in paraffin. The tissue samples were processed using routine histology techniques. Standard Hematoxylin & Eosin (H&E) staining (FIG. 1) was carried out in retinal sections. The remarkably uniform and laminated histological architecture of the retina lends itself well to direct measurements of the thickness of the various layers as shown in FIG. 1. Using the image analysis software, ImagePro 7.0 (Media Cybernetics, Silver Spring, Md.), the thickness of all retinal layers were measured. The thickness of each retinal layer was measured in three separate retinal sections obtained from each animal. In each section, measurements were made at two randomly selected locations in the middle part of retina. Results were averaged for each pig. The identity of specimens was blinded and two independent investigators carried out this analysis. In addition, the percentage contribution of each retinal layer to the total thickness of the retina was calculated and compared among the different treatment groups (FIG. 2). The thickness of the individual layers of the retina was measured in transverse sections stained with Hematoxylin and Eosin using the image analysis software, ImagePro 7.0.

SMILES: CCN(CC)CCN(Cc1ccc(-c2ccc(C(F)(F)F)cc2)cc1)C(=O)Cn1c(SCc2ccc(F)cc2)nc(=O)c2c1CCC2 [Darapladib]
- claudin5 protein expression, anterior cortex, versus DMHC group (claudin5; FIG. 7A): reduction in claudin5 expression compared to the DMHC group, but this difference did not reach statistical significance
- claudin5 protein expression, anterior cortex, versus controls (claudin5; FIG. 7A): significantly higher than in controls
- claudin5 protein expression, middle cortex, versus DMHC only (claudin5; FIG. 7B): approached statistical significance
- claudin5 protein expression, middle cortex, versus controls (claudin5; FIG. 7B): reduced expression of claudin5 to levels not significantly different from controls
- claudin5 protein expression, posterior cortex (claudin5; rank among treatment groups, FIG. 7C): highest expression of claudin5
- occludin protein expression, middle cortex (occludin; FIG. 7E): comparable levels of occludin expression
- occludin protein expression, anterior cortex (occludin; rank among treatment groups, FIG. 7D): highest level of occludin expression
- occludin protein expression, posterior cortex (occludin; rank among treatment groups, FIG. 7F): lowest expression
- thickness of ganglion cell layer (GCL) (porcine retina; FIG. 2B): comparable to controls
- thickness of outer nuclear layer (ONL) (porcine retina; FIG. 2C): comparable to controls
- thickness of inner-segment (IS)/outer-segment (OS) layer (porcine retina; FIG. 2D): comparable to controls
- thickness of inner plexiform layer (IPL) (porcine retina; FIG. 2E): lowered IPL thickness in DMHC animals to near control levels
- thickness of inner nuclear layer (INL) (porcine retina; FIG. 2F): comparable thickness across all treatment groups
